Source: patent publication US8012975B2, “Antitumoral analogs of ET-743” (Pharma Mar, S.A., priority 2000, dated 2011)
Where two headings read alike, the source gives them in different places.

Tests used:
HT-29 [1] = system: HT-29
DU-145 [2] = system: DU-145
A-549 [3] = system: A-549
MEL-28 [4] = system: MEL-28
P-388 [5] = system: P-388
P-388 [6] = experiment: Cytotoxic activity IC50, P-388; conditions: Mus musculus, P388, read-out: CYTOTOXIC ACTIVITIY IC50 (μM) P-388
A-549 [7] = experiment: Cytotoxic activity IC50, A-549; conditions: Homo sapiens, A549, read-out: CYTOTOXIC ACTIVITIY IC50 (μM) A-549, A-549
DU-145 [8] = experiment: Cytotoxic activity IC50, DU-145; conditions: Homo sapiens, DU-145, read-out: CYTOTOXIC ACTIVITIY IC50 (μM) DU-145, DU-145
MEL-28 [9] = experiment: Cytotoxic activity IC50, MEL-28; conditions: Homo sapiens, SK-MEL-28, read-out: CYTOTOXIC ACTIVITIY IC50 (μM) MEL-28, MEL-28
HT-29 [10] = experiment: Cytotoxic activity IC50, HT-29; conditions: Homo sapiens, HT-29, read-out: CYTOTOXIC ACTIVITIY IC50 (μM) HT-29, HT-29

| Structure (SMILES) | IC50 (HT-29 [1]) | IC50 (DU-145 [2]) | IC50 (A-549 [3]) | IC50 (MEL-28 [4]) | IC50 (P-388 [5]) | IC50 (P-388 [6]) | IC50 (A-549 [7]) | IC50 (DU-145 [8]) | further results |
| --- | --- | --- | --- | --- | --- | --- | --- | --- | --- |
| C=CCOC(=O)Oc1c(C)c2c(c3c1CC1[C@H]4c5c(cc(C)c(OC)c5O)C[C@@H]([C@H](C#N)N1[C@H]3CNC(=O)CCc1ccccc1)N4C)OCO2 (some centres unmarked) | 0.1 nM | 0.1 nM | 0.1 nM | 0.1 nM | 0.1 nM |  |  |  |  |
| C=CCOC(=O)Oc1c(C)c2c(c3c1CC1[C@H]4c5c(cc(C)c(OC)c5O)C[C@@H]([C@H](O)N1[C@H]3CNC(=O)CCc1ccccc1)N4C)OCO2 (some centres unmarked) | 0.1 nM | 0.1 nM | 0.1 nM | 0.1 nM | 0.1 nM |  |  |  |  |
| CCCC(=O)OC[C@H]1c2c(c(OC(C)=O)c(C)c3c2OCO3)CC2[C@H]3c4c(cc(C)c(OC)c4OCOC)C[C@@H]([C@H](C#N)N21)N3C (some centres unmarked) [drawing 148] |  |  |  |  |  | 0.1 µM |  |  | IC50 (HT-29 [1]; human): 100 nM; IC50 (DU-145 [2]; human): 100 nM; IC50 (A-549 [3]; human): 100 nM; IC50 (MEL-28 [4]; human): 100 nM |
| COc1c(C)cc2c(c1O)[C@@H]1C3Cc4c(OC(C)=O)c(C)c5c(c4[C@H](CNC(=O)[C@H](C)NC(=O)Cc4ccccc4)N3[C@@H](C#N)[C@H](C2)N1C)OCO5 (some centres unmarked) | 0.1 nM | 0.1 nM | 0.1 nM | 0.1 nM | 0.1 nM |  |  |  |  |
| C/C=C/C(=O)NC[C@H]1c2c(c(OC(C)=O)c(C)c3c2OCO3)CC2[C@H]3c4c(cc(C)c(OC)c4O)C[C@@H]([C@H](O)N21)N3C (some centres unmarked) | 0.1 nM |  |  | 0.1 nM | 0.1 nM |  | 0.0008 µM | 0.0008 µM |  |
| C=CCOC(=O)Oc1c(C)c2c(c3c1CC1[C@H]4c5c(cc(C)c(OC)c5O)C[C@@H]([C@H](O)N1[C@H]3CNC(=O)/C=C/c1ccccc1)N4C)OCO2 (some centres unmarked) | 0.1 nM | 0.1 nM | 0.1 nM | 0.1 nM | 0.1 nM |  |  |  |  |
| C/C=C/C(=O)NC[C@H]1c2c(c(OC(C)=O)c(C)c3c2OCO3)CC2[C@H]3c4c(cc(C)c(OC)c4O)C[C@@H]([C@H](C#N)N21)N3C (some centres unmarked) | 0.1 nM |  |  | 0.1 nM | 0.1 nM |  | 0.0008 µM | 0.0008 µM |  |
| COc1c(C)cc2c(c1O)[C@@H]1C3Cc4c(OC(C)=O)c(C)c5c(c4[C@H](COC(=O)CCc4ccccc4)N3[C@@H](C#N)[C@H](C2)N1C)OCO5 (some centres unmarked) | 0.1 nM | 0.1 nM | 0.1 nM | 0.1 nM | 0.1 nM |  |  |  |  |
| COc1c(C)cc2c(c1O)[C@@H]1C3Cc4c(OC(C)=O)c(C)c5c(c4[C@H](COC(=O)/C=C/c4cccc(C(F)(F)F)c4)N3[C@@H](O)[C@H](C2)N1C)OCO5 (some centres unmarked) [drawing 157] | 0.1 nM | 0.1 nM | 0.1 nM | 0.1 nM | 0.1 nM |  |  |  |  |
| COc1c(C)cc2c(c1O)[C@@H]1C3Cc4c(OC(C)=O)c(C)c5c(c4[C@H](CNC(=O)Cc4ccccc4)N3[C@@H](C#N)[C@H](C2)N1C)OCO5 (some centres unmarked) | 0.1 nM | 0.1 nM | 0.1 nM | 0.1 nM | 0.1 nM |  |  |  |  |
| CCCC(=O)NC[C@H]1c2c(c(OC(C)=O)c(C)c3c2OCO3)CC2[C@H]3c4c(cc(C)c(OC)c4O)C[C@@H]([C@H](O)N21)N3C (some centres unmarked) [drawing 114] | 0.1 nM | 0.1 nM |  |  |  | 0.0008 µM | 0.0008 µM |  | IC50 (MEL-28 [9]): 0.0008 µM |
| C=CCOC(=O)Oc1c(C)c2c(c3c1CC1[C@H]4c5c(cc(C)c(OC)c5O)C[C@@H]([C@H](C#N)N1[C@H]3CNC(=O)[C@H](C)NC(=S)Nc1ccccc1)N4C)OCO2 (some centres unmarked) |  |  |  |  |  | 0.001 µM | 0.001 µM | 0.001 µM | IC50 (HT-29 [10]): 0.001 µM; IC50 (MEL-28 [9]): 0.001 µM |
| COCOc1c(OC)c(C)cc2c1[C@@H]1C3Cc4c(OC(C)=O)c(C)c5c(c4[C@H](COC(=O)/C=C/c4cccc(C(F)(F)F)c4)N3[C@@H](C#N)[C@H](C2)N1C)OCO5 (some centres unmarked) |  |  |  |  |  | 0.6 µM | 0.6 µM | 0.6 µM | IC50 (HT-29 [10]): 0.6 µM; IC50 (MEL-28 [9]): 0.6 µM |
| C=CCOC(=O)Oc1c(C)c2c(c3c1CC1[C@H]4c5c(cc(C)c(OC)c5O)C[C@@H]([C@H](C#N)N1[C@H]3CNC(=O)OCC(Cl)(Cl)Cl)N4C)OCO2 (some centres unmarked) |  |  |  |  |  | 0.006 µM | 0.006 µM | 0.006 µM | IC50 (HT-29 [10]): 0.006 µM; IC50 (MEL-28 [9]): 0.006 µM |
| CCCCCC(=O)NC[C@H]1c2c(c(OC(C)=O)c(C)c3c2OCO3)CC2[C@H]3c4c(cc(C)c(OC)c4O)C[C@@H]([C@H](C#N)N21)N3C (some centres unmarked) [drawing 126] |  |  |  |  | 0.1 nM |  |  |  |  |
